From patent US20100222269A1, “IMPROVED DERIVATIVES OF AMYLIN” (priority 2007, published 2010)
Positions of bridges follow the written chain, without caps; N, C: chain ends. Non-standard residues stand in square brackets, D forms with d. Residues, ends and D or L forms follow the SMILES beside them. *: point of attachment. C20 diacid = O=C(O)CCCCCCCCCCCCCCCCCCC(=O)*; AEEA = NCCOCCOCC(=O)O

Biological target: T1, Amylin 3(a) receptor (human calcitonin receptor (CTa) with RAMP-3) (Homo sapiens, UniProt O60896+P30988)
T1 construct: expressed in transfected cells; host or cells: BHK570 (baby hamster kidney) cells, stably transfected, with CRE-luciferase reporter
Experiment: Amylin luciferase assay (CRE-luciferase reporter in BHK Amylin 3(a)//CRE-luc cells)
Assay type: cell-based
Conditions: BHK570 cells with human calcitonin receptor (CTa), RAMP-3 and CRE-luciferase reporter; 4 hours incubation; read-out: Potency luciferase assay
Source text: It has previously been published (Poyner D R et al 2002, Pharmacological Reviews 54(2) 233-246) that activation of Amylin receptors (coexpression of Calcitonin receptor and receptor activity modifying peptides RAMPs) by Amylin leads to an increase in the intracellular concentration of cAMP. Consequently, transcription is activated at promotors containing multiple copies of the cAMP response element (CRE). It is thus possible to measure Amylin activity by use of a CRE luciferase reporter gene introduced into BHK cells also expressing an Amylin receptor.
2. Construction of an Amylin 3(a)/CRE-luc Cell Line
A BHK570 cell line stably transfected with the human calcitonin receptor (CTa) and a CRE-responsive luciferase reportergene. The cell line was further transfected with RAMP-3, using standard methods. This turns the Calcitonin receptor into an Amylin 3(a) receptor. Methotrexate, Neomycin, and Hygromycin are selection markers for luciferase, the Calcitonin receptor, and RAMP-3, respectively.
3. Amylin Luciferase Assay
To perform activity assays, BHK Amylin 3(a)//CRE-luc cells were seeded in white 96 well culture plates at a density of about 20.000 cells/well. The cells were in 100 μl growth medium (DMEM with 10% FBS, 1% Pen/Strep, 1 mM Na-pyruvate, 250 nM Methotrexate, 500 μg/ml Neomycin, and 400 μg/ml Hygromycin). After incubation overnight at 37° C. and 5% CO2, the growth medium was replaced by 50 μl/well assay medium (DMEM (without phenol red), Glumamax™, 10% FBS, and 10 mM Hepes, pH 7,4). Further, 50 μl/well of standard or sample in assay buffer were added. After 4 hours incubation at 37° C. and 5% CO2, the assay medium with standard or sample were removed and replaced by 100 μl/well PBS. Further, 100 μl/well LucLite™ was added. The plates were sealed and incubated at room temperature for 30 minutes. Finally, luminescence was measured on a TopCounter (Packard) in SPC (single photon counting) mode.

T1 sequence (O60896 24-148): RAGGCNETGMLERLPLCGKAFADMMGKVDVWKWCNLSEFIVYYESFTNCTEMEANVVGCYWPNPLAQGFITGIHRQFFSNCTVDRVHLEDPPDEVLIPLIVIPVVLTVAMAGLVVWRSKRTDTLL
T1 sequence (P30988 25-474): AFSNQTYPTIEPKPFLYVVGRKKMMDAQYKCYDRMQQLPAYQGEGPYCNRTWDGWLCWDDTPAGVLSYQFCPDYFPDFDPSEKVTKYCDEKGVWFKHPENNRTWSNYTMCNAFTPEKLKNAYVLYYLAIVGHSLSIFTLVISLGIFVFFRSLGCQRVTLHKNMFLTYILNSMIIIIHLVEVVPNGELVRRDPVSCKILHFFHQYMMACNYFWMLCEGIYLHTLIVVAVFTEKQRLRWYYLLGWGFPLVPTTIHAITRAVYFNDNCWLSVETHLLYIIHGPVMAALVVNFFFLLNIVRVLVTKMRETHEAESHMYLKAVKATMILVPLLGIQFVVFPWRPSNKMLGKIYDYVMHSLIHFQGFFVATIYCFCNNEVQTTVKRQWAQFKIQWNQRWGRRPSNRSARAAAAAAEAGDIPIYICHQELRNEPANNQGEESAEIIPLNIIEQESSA

Compound | EC50 [nM]
CC[C@H](C)[C@H](NC(=O)[C@@H]1CCCN1C(=O)CNC(=O)[C@H](Cc1ccccc1)NC(=O)[C@H](CC(N)=O)NC(=O)[C@H](CC(N)=O)NC(=O)[C@H](CO)NC(=O)[C@H](CO)NC(=O)[C@H](Cc1c[nH]cn1)NC(=O)[C@@H](NC(=O)[C@H](CC(C)C)NC(=O)[C@H](Cc1ccccc1)NC(=O)[C@H](CC(N)=O)NC(=O)[C@H](C)NC(=O)[C@H](CC(C)C)NC(=O)[C@H](CCCNC(=N)N)NC(=O)[C@H](CCC(N)=O)NC(=O)[C@@H](NC(=O)[C@H](C)NC(=O)[C@@H]1CSSC[C@H](NC(=O)[C@H](CCCNC(=N)N)NC(=O)[C@H](CCCCN)NC(=O)[C@H](CCC(=O)O)NC(=O)CCCCCCCCCCCCCCCCCCC(=O)O)C(=O)N[C@@H](CC(N)=O)C(=O)N[C@@H]([C@@H](C)O)C(=O)N[C@@H](C)C(=O)N[C@@H]([C@@H](C)O)C(=O)N1)[C@@H](C)O)C(C)C)C(=O)N[C@@H](CC(C)C)C(=O)N1CCC[C@H]1C(=O)N1CCC[C@H]1C(=O)N[C@H](C(=O)N[C@@H](CC(N)=O)C(=O)N[C@H](C(=O)NCC(=O)N[C@@H](CO)C(=O)N[C@@H](CC(N)=O)C(=O)N[C@H](C(=O)N[C@@H](Cc1ccc(O)cc1)C(N)=O)[C@@H](C)O)C(C)C)[C@@H](C)O [Example 51, N-alpha-(19-carboxynonadecanoyl)-Glu-Lys-[Arg1]-pramlintide (1-37)] ({C20 diacid}-EKRCNTATCATQRLANFLVHSSNNFGPILPPTNVGSNTY-NH2; disulfide 4-9; C-terminus assumed) | 0.07
{C20 diacid}-EER[AEEA]ECNTATCATQRLANFLVHSSNNFGPILPPTNVGSNTY-NH2 (disulfide 6-11; C-terminus assumed) [Example 44, N-alpha-(2-{2-[2-((S)-2-{(S)-4-carboxy-2-[(S)-4-carboxy-2-(19-carboxynonadecanoylamino)butyrylamino]butyrylamino}-5-guanidinopentanoylamino)ethoxy]ethoxy}acetyl)-[Glu1]-pramlintide (1-37)] | 0.4
CC[C@H](C)[C@H](NC(=O)[C@@H]1CCCN1C(=O)CNC(=O)[C@H](Cc1ccccc1)NC(=O)[C@H](CC(N)=O)NC(=O)[C@H](CC(N)=O)NC(=O)[C@H](CO)NC(=O)[C@H](CO)NC(=O)[C@H](Cc1c[nH]cn1)NC(=O)[C@@H](NC(=O)[C@H](CC(C)C)NC(=O)[C@H](Cc1ccccc1)NC(=O)[C@H](CC(N)=O)NC(=O)[C@H](C)NC(=O)[C@H](CC(C)C)NC(=O)[C@H](CCCNC(=N)N)NC(=O)[C@H](CCC(N)=O)NC(=O)[C@@H](NC(=O)[C@H](C)NC(=O)[C@@H]1CSSC[C@H](NC(=O)[C@@H](N)CCCCN)C(=O)N[C@@H](CCCCNC(=O)CCCCCCCCCCCCCCCCCCC(=O)O)C(=O)N[C@@H]([C@@H](C)O)C(=O)N[C@@H](C)C(=O)N[C@@H]([C@@H](C)O)C(=O)N1)[C@@H](C)O)C(C)C)C(=O)N[C@@H](CC(C)C)C(=O)N1CCC[C@H]1C(=O)N1CCC[C@H]1C(=O)N[C@H](C(=O)N[C@@H](CC(N)=O)C(=O)N[C@H](C(=O)NCC(=O)N[C@@H](CO)C(=O)N[C@@H](CC(N)=O)C(=O)N[C@H](C(=O)N[C@@H](Cc1ccc(O)cc1)C(N)=O)[C@@H](C)O)C(C)C)[C@@H](C)O [Example 14, N-epsilon3-(19-carboxynonadecanoyl)-[Lys3]-pramlintide (1-37)] (H-KCK(C20 diacid)TATCATQRLANFLVHSSNNFGPILPPTNVGSNTY-NH2; disulfide 2-7; N-terminus assumed) | 0.05
CC[C@H](C)[C@H](NC(=O)[C@@H]1CCCN1C(=O)CNC(=O)[C@H](Cc1ccccc1)NC(=O)[C@H](CC(N)=O)NC(=O)[C@H](CC(N)=O)NC(=O)[C@H](CO)NC(=O)[C@H](CO)NC(=O)[C@H](Cc1c[nH]cn1)NC(=O)[C@@H](NC(=O)[C@H](CC(C)C)NC(=O)[C@H](Cc1ccccc1)NC(=O)[C@H](CC(N)=O)NC(=O)[C@H](C)NC(=O)[C@H](CC(C)C)NC(=O)[C@H](CCCNC(=N)N)NC(=O)[C@H](CCC(N)=O)NC(=O)[C@@H](NC(=O)[C@H](C)NC(=O)[C@@H]1CSSC[C@H](NC(=O)[C@H](CCCCN)NC(=O)[C@H](CCCNC(=N)N)NC(=O)[C@H](CCCCN)NC(=O)[C@H](CCC(=O)O)NC(=O)CCCCCCCCCCCCCCCCCCC(=O)O)C(=O)N[C@@H](CC(N)=O)C(=O)N[C@@H]([C@@H](C)O)C(=O)N[C@@H](C)C(=O)N[C@@H]([C@@H](C)O)C(=O)N1)[C@@H](C)O)C(C)C)C(=O)N[C@@H](CC(C)C)C(=O)N1CCC[C@H]1C(=O)N1CCC[C@H]1C(=O)N[C@H](C(=O)N[C@@H](CC(N)=O)C(=O)N[C@H](C(=O)NCC(=O)N[C@@H](CO)C(=O)N[C@@H](CC(N)=O)C(=O)N[C@H](C(=O)N[C@@H](Cc1ccc(O)cc1)C(N)=O)[C@@H](C)O)C(C)C)[C@@H](C)O [Example 50, N-alpha-(19-carboxynonadecanoyl)-Glu-Lys-Arg-pramlintide (1-37)] ({C20 diacid}-EKRKCNTATCATQRLANFLVHSSNNFGPILPPTNVGSNTY-NH2; disulfide 5-10) | 0.08
CC[C@H](C)[C@H](NC(=O)[C@@H]1CCCN1C(=O)CNC(=O)[C@H](Cc1ccccc1)NC(=O)[C@H](CC(N)=O)NC(=O)[C@H](CC(N)=O)NC(=O)[C@H](CO)NC(=O)[C@H](CO)NC(=O)[C@H](Cc1c[nH]cn1)NC(=O)[C@@H](NC(=O)[C@H](CC(C)C)NC(=O)[C@H](Cc1ccccc1)NC(=O)[C@H](CC(N)=O)NC(=O)[C@H](C)NC(=O)[C@H](CC(C)C)NC(=O)[C@H](CCCNC(=N)N)NC(=O)[C@H](CCC(N)=O)NC(=O)[C@@H](NC(=O)[C@H](C)NC(=O)[C@@H]1CSSC[C@H](NC(=O)[C@H](CCC(=O)O)NC(=O)[C@H](CCCNC(=N)N)NC(=O)[C@H](CCC(=O)O)NC(=O)[C@H](CCC(=O)O)NC(=O)CCCCCCCCCCCCCCCCCCC(=O)O)C(=O)N[C@@H](CC(N)=O)C(=O)N[C@@H]([C@@H](C)O)C(=O)N[C@@H](C)C(=O)N[C@@H]([C@@H](C)O)C(=O)N1)[C@@H](C)O)C(C)C)C(=O)N[C@@H](CC(C)C)C(=O)N1CCC[C@H]1C(=O)N1CCC[C@H]1C(=O)N[C@H](C(=O)N[C@@H](CC(N)=O)C(=O)N[C@H](C(=O)NCC(=O)N[C@@H](CO)C(=O)N[C@@H](CC(N)=O)C(=O)N[C@H](C(=O)N[C@@H](Cc1ccc(O)cc1)C(N)=O)[C@@H](C)O)C(C)C)[C@@H](C)O [Example 25, N-alpha-(19-carboxynonadecanoyl)-Glu-Glu-Arg-[Glu1]-pramlintide (1-37)] ({C20 diacid}-EERECNTATCATQRLANFLVHSSNNFGPILPPTNVGSNTY-NH2; disulfide 5-10; C-terminus assumed) | 0.08
CC[C@H](C)[C@H](NC(=O)[C@@H]1CCCN1C(=O)CNC(=O)[C@H](Cc1ccccc1)NC(=O)[C@H](CC(N)=O)NC(=O)[C@H](CC(N)=O)NC(=O)[C@H](CO)NC(=O)[C@H](CO)NC(=O)[C@H](Cc1c[nH]cn1)NC(=O)[C@@H](NC(=O)[C@H](CC(C)C)NC(=O)[C@H](Cc1ccccc1)NC(=O)[C@H](CC(N)=O)NC(=O)[C@H](C)NC(=O)[C@H](CC(C)C)NC(=O)[C@H](CCCNC(=N)N)NC(=O)[C@H](CCC(N)=O)NC(=O)[C@@H](NC(=O)[C@H](C)NC(=O)[C@@H]1CSSC[C@H](NC(=O)[C@H](CCCNC(=N)N)NC(=O)[C@H](CCC(=O)O)NC(=O)CCCCCCCCCCCCCCCCCCC(=O)O)C(=O)N[C@@H](CC(N)=O)C(=O)N[C@@H]([C@@H](C)O)C(=O)N[C@@H](C)C(=O)N[C@@H]([C@@H](C)O)C(=O)N1)[C@@H](C)O)C(C)C)C(=O)N[C@@H](CC(C)C)C(=O)N1CCC[C@H]1C(=O)N1CCC[C@H]1C(=O)N[C@H](C(=O)N[C@@H](CC(N)=O)C(=O)N[C@H](C(=O)NCC(=O)N[C@@H](CO)C(=O)N[C@@H](CC(N)=O)C(=O)N[C@H](C(=O)N[C@@H](Cc1ccc(O)cc1)C(N)=O)[C@@H](C)O)C(C)C)[C@@H](C)O [Example 46, N-alpha-(19-carboxynonadecanoyl)-Glu-[Arg1]-pramlintide (1-37)] ({C20 diacid}-ERCNTATCATQRLANFLVHSSNNFGPILPPTNVGSNTY-NH2; disulfide 3-8; C-terminus assumed) | 0.1
